In ChEMBL document CHEMBL3784948, “Pharmacokinetics of diclofenac and five metabolites after single doses in healthy volunteers and after repeated doses in patients” (Xenobiotica, 1988):
One block for each compound: values may come before it.

Assays:
Assay type in all cases: ADME, organism-based
Homo sapiens [1] = test: Tmax in healthy volunteer (3 volunteers) assessed as 4',5-dihydroxy diclofenac at 100 mg, po administered as single dose by capillary column gas chromatographic method; details: in vivo
[2] = Total drug excretion in healthy volunteer (3 volunteers) urine assessed as 4',5-dihydroxy diclofenac at 100 mg, po administered as single dose measured over 96 hrs by capillary column gas chromatographic method; details: human, in vivo
Homo sapiens [3] = test: Apparent elimination half life in healthy volunteer (3 volunteers) assessed as 4',5-dihydroxy diclofenac at 100 mg, po administered as single dose by capillary column gas chromatographic method; details: in vivo
Homo sapiens [4] = test: AUC (0 to 96 hrs) in healthy volunteer (3 volunteers) assessed as 3'-hydroxy-4'-methoxy diclofenac at 100 mg, po administered as single dose by capillary column gas chromatographic method; parameters: dose 100 mg, time < 96 hr, route oral; details: in vivo
Homo sapiens [5] = test: AUC (0 to infinity) in healthy volunteer (2 volunteers) assessed as 3'-hydroxy-4'-methoxy diclofenac at 100 mg, po administered as single dose by capillary column gas chromatographic method; parameters: dose 100 mg, route oral, time infinity; details: in vivo
Homo sapiens [6] = test: Cmax in healthy volunteer (3 volunteers) assessed as 3'-hydroxy-4'-methoxy diclofenac at 100 mg, po administered as single dose by capillary column gas chromatographic method; parameters: dose 100 mg, route oral; details: in vivo
Homo sapiens [7] = test: Tmax in healthy volunteer (3 volunteers) assessed as 3'-hydroxy-4'-methoxy diclofenac at 100 mg, po administered as single dose by capillary column gas chromatographic method; details: in vivo
[8] = Total drug excretion in healthy volunteer (3 volunteers) urine assessed as 3'-hydroxy-4'-methoxy diclofenac at 100 mg, po administered as single dose measured over 96 hrs by capillary column gas chromatographic method; details: human, in vivo
Homo sapiens [9] = test: Apparent elimination half life in healthy volunteer (3 volunteers) assessed as 3'-hydroxy-4'-methoxy diclofenac at 100 mg, po administered as single dose by capillary column gas chromatographic method; details: in vivo
Homo sapiens [10] = test: AUC (0 to 72 hrs) in healthy volunteer assessed as 3'-hydroxy-4'-methoxy diclofenac at 100 mg, po administered as single dose by capillary column gas chromatographic method; parameters: time < 72 hr, dose 100 mg, route oral; details: in vivo
Homo sapiens [11] = test: AUC (0 to 96 hrs) in healthy volunteer (3 volunteers) at 100 mg, po administered as single dose by capillary column gas chromatographic method; parameters: time < 96 hr, dose 100 mg, route oral; details: in vivo
Homo sapiens [12] = test: AUC (0 to infinity) in healthy volunteer (3 volunteers) at 100 mg, po administered as single dose by capillary column gas chromatographic method; parameters: dose 100 mg, time infinity, route oral; details: in vivo
Homo sapiens [13] = test: Cmax in healthy volunteer (3 volunteers) at 100 mg, po administered as single dose by capillary column gas chromatographic method; parameters: dose 100 mg, route oral; details: in vivo
[14] = Tmax in healthy volunteer (3 volunteers) at 100 mg, po administered as single dose by capillary column gas chromatographic method; details: human, in vivo
[15] = Total drug excretion in healthy volunteer (3 volunteers) urine at 100 mg, po administered as single dose measured over 96 hrs by capillary column gas chromatographic method; details: human, in vivo
[16] = Apparent elimination half life in healthy volunteer (3 volunteers) at 100 mg, po administered as single dose by capillary column gas chromatographic method; details: human, in vivo, read-out: betat1/2(app) (converted)
Homo sapiens [17] = test: AUC (0 to 96 hrs) in healthy volunteer (3 volunteers) assessed as 4'-hydroxy diclofenac at 100 mg, po administered as single dose by capillary column gas chromatographic method; parameters: time < 96 hr, dose 100 mg, route oral; details: in vivo
Homo sapiens [18] = test: AUC (0 to infinity) in healthy volunteer (3 volunteers) assessed as 4'-hydroxy diclofenac at 100 mg, po administered as single dose by capillary column gas chromatographic method; parameters: dose 100 mg, route oral, time infinity; details: in vivo
Homo sapiens [19] = test: Cmax in healthy volunteer (3 volunteers) assessed as 4'-hydroxy diclofenac at 100 mg, po administered as single dose by capillary column gas chromatographic method; parameters: dose 100 mg, route oral; details: in vivo
Homo sapiens [20] = test: Tmax in healthy volunteer (3 volunteers) assessed as 4'-hydroxy diclofenac at 100 mg, po administered as single dose by capillary column gas chromatographic method; details: in vivo
[21] = Total drug excretion in healthy volunteer (3 volunteers) urine assessed as 4'-hydroxy diclofenac at 100 mg, po administered as single dose measured over 96 hrs by capillary column gas chromatographic method; details: human, in vivo
Homo sapiens [22] = test: Apparent elimination half life in healthy volunteer (3 volunteers) assessed as 4'-hydroxy diclofenac at 100 mg, po administered as single dose by capillary column gas chromatographic method; details: in vivo
Homo sapiens [23] = test: AUC (0 to 96 hrs) in healthy volunteer (3 volunteers) assessed as 3'-hydroxy diclofenac at 100 mg, po administered as single dose by capillary column gas chromatographic method; parameters: dose 100 mg, time < 96 hr, route oral; details: in vivo
Homo sapiens [24] = test: AUC (0 to 96 hrs) in healthy volunteer (3 volunteers) assessed as 5-hydroxy diclofenac at 100 mg, po administered as single dose by capillary column gas chromatographic method; parameters: dose 100 mg, time < 96 hr, route oral; details: in vivo
Homo sapiens [25] = test: AUC (0 to infinity) in healthy volunteer (3 volunteers) assessed as 5-hydroxy diclofenac at 100 mg, po administered as single dose by capillary column gas chromatographic method; parameters: dose 100 mg, route oral, time infinity; details: in vivo
Homo sapiens [26] = test: Cmax in healthy volunteer (3 volunteers) assessed as 5-hydroxy diclofenac at 100 mg, po administered as single dose by capillary column gas chromatographic method; parameters: dose 100 mg, route oral; details: in vivo
Homo sapiens [27] = test: Tmax in healthy volunteer (3 volunteers) assessed as 5-hydroxy diclofenac at 100 mg, po administered as single dose by capillary column gas chromatographic method; details: in vivo
[28] = Total drug excretion in healthy volunteer (3 volunteers) urine assessed as 5-hydroxy diclofenac at 100 mg, po administered as single dose measured over 96 hrs by capillary column gas chromatographic method; details: human, in vivo
Homo sapiens [29] = test: Apparent elimination half life in healthy volunteer (3 volunteers) assessed as 5-hydroxy diclofenac at 100 mg, po administered as single dose by capillary column gas chromatographic method; details: in vivo
Homo sapiens [30] = test: AUC (0 to infinity) in healthy volunteer (3 volunteers) assessed as 3'-hydroxy diclofenac at 100 mg, po administered as single dose by capillary column gas chromatographic method; parameters: dose 100 mg, time infinity, route oral; details: in vivo
Homo sapiens [31] = test: Cmax in healthy volunteer (3 volunteers) assessed as 3'-hydroxy diclofenac at 100 mg, po administered as single dose by capillary column gas chromatographic method; parameters: dose 100 mg, route oral; details: in vivo
Homo sapiens [32] = test: Tmax in healthy volunteer (3 volunteers) assessed as 3'-hydroxy diclofenac at 100 mg, po administered as single dose by capillary column gas chromatographic method; details: in vivo
[33] = Total drug excretion in healthy volunteer (3 volunteers) urine assessed as 3'-hydroxy diclofenac at 100 mg, po administered as single dose measured over 96 hrs by capillary column gas chromatographic method; details: human, in vivo
Homo sapiens [34] = test: Apparent elimination half life in healthy volunteer (3 volunteers) assessed as 3'-hydroxy diclofenac at 100 mg, po administered as single dose by capillary column gas chromatographic method; details: in vivo
Homo sapiens [35] = test: AUC (0 to 96 hrs) in healthy volunteer (3 volunteers) assessed as 4',5-dihydroxy diclofenac at 100 mg, po administered as single dose by capillary column gas chromatographic method; parameters: time < 96 hr, dose 100 mg, route oral; details: in vivo
Homo sapiens [36] = test: AUC (0 to infinity) in healthy volunteer (3 volunteers) assessed as 4',5-dihydroxy diclofenac at 100 mg, po administered as single dose by capillary column gas chromatographic method; parameters: dose 100 mg, time infinity, route oral; details: in vivo
Homo sapiens [37] = test: Cmax in healthy volunteer (3 volunteers) assessed as 4',5-dihydroxy diclofenac at 100 mg, po administered as single dose by capillary column gas chromatographic method; parameters: dose 100 mg, route oral; details: in vivo
Plasma [38] = test: Steady state trough plasma concentration in chronic polyarthritis patient (6 patients) at 75 mg, po bid administered for 6 to 10 months by capillary column gas chromatographic method; details: human, in vivo
Plasma [39] = test: Steady state trough plasma concentration in chronic polyarthritis patient (6 patients) assessed as 4'-hydroxy diclofenac at 75 mg, po bid administered for 6 to 10 months by capillary column gas chromatographic method; details: human, in vivo
Plasma [40] = test: Steady state trough plasma concentration in chronic polyarthritis patient (6 patients) assessed as 5-hydroxy diclofenac at 75 mg, po bid administered for 6 to 10 months by capillary column gas chromatographic method; details: human, in vivo
Plasma [41] = test: Steady state trough plasma concentration in chronic polyarthritis patient (6 patients) assessed as 3'-hydroxy diclofenac at 75 mg, po bid administered for 6 to 10 months by capillary column gas chromatographic method; details: human, in vivo
Plasma [42] = test: Steady state trough plasma concentration in chronic polyarthritis patient (6 patients) assessed as 4',5-dihydroxy diclofenac at 75 mg, po bid administered for 6 to 10 months by capillary column gas chromatographic method; details: human, in vivo
Plasma [43] = test: Steady state trough plasma concentration in chronic polyarthritis patient (6 patients) assessed as 3'-hydroxy-4'-methoxy diclofenac at 75 mg, po bid administered for 6 to 10 months by capillary column gas chromatographic method; details: human, in vivo

Tmax (Homo sapiens [1]): 40.2 min
Drug excretion [2]: 5.86 %ID
betat1/2(app) (Homo sapiens [3]): 2.6 h
AUC (Homo sapiens [4]): 35.22 nmol·h/g
AUC (Homo sapiens [5]): 61.82 nmol·h/g
Cmax (Homo sapiens [6]): 0.49 nmol/g
Tmax (Homo sapiens [7]): 720 min
Drug excretion [8]: 1.3 %ID
betat1/2(app) (Homo sapiens [9]): 78 h
AUC (Homo sapiens [10]): 46.09 nmol·h/g
AUC (Homo sapiens [11]): 6.05 nmol·h/g
AUC (Homo sapiens [12]): 6.05 nmol·h/g
Cmax (Homo sapiens [13]): 9.73 nmol/g
Tmax [14]: 19.8 min
Drug excretion [15]: 4.45 %ID
half-life [16]: 60 min
AUC (Homo sapiens [17]): 2.43 nmol·h/g
AUC (Homo sapiens [18]): 2.43 nmol·h/g
Cmax (Homo sapiens [19]): 1.19 nmol/g
Tmax (Homo sapiens [20]): 19.8 min
Drug excretion [21]: 9.92 %ID
betat1/2(app) (Homo sapiens [22]): 2 h
AUC (Homo sapiens [23]): 1.71 nmol·h/g
AUC (Homo sapiens [24]): 0.58 nmol·h/g
AUC (Homo sapiens [25]): 0.58 nmol·h/g
Cmax (Homo sapiens [26]): 0.45 nmol/g
Tmax (Homo sapiens [27]): 19.8 min
Drug excretion [28]: 4.66 %ID
betat1/2(app) (Homo sapiens [29]): 1 h
AUC (Homo sapiens [30]): 1.71 nmol·h/g
Cmax (Homo sapiens [31]): 0.36 nmol/g
Tmax (Homo sapiens [32]): 19.8 min
Drug excretion [33]: 2.79 %ID
betat1/2(app) (Homo sapiens [34]): 1.1 h
AUC (Homo sapiens [35]): 1.46 nmol·h/g
AUC (Homo sapiens [36]): 1.46 nmol·h/g
Cmax (Homo sapiens [37]): 0.44 nmol/g
Compound: O=C([O-])Cc1ccccc1Nc1c(Cl)cccc1Cl.[Na+] [DICLOFENAC SODIUM]

Cminss (Plasma [38]): 0.565 nmol/g
Cminss (Plasma [39]): 0.438 nmol/g
Cminss (Plasma [40]): 0.234 nmol/g
Cminss (Plasma [41]): 0.302 nmol/g
Cminss (Plasma [42]): 0.252 nmol/g
Cminss (Plasma [43]): 3.687 nmol/g
Compound: Cc1nnc(SCC2=C(C(=O)O)N3C(=O)[C@@H](NC(=O)Cn4cc(Cl)c(=O)c(Cl)c4)[C@H]3SC2)s1 [CEFAZEDONE]
